From patent publication US8242145B2, “Cyclic diaryl ether compounds as antagonists of prostaglandin D2 receptors” (Panmira Pharmaceuticals, LLC, priority 2008, dated 2012)

Columns and labels:
human DP1 receptor = target: T1, human DP1 receptor (Homo sapiens, UniProt Q13258); assay: DP1 radioligand binding assay using [3H]BWA868C; details: hDP1 binding
T1 construct: tissue Biological Specialty Corporation; host or cells: human platelets, membranes
T1 sequence (Q13258 1-359): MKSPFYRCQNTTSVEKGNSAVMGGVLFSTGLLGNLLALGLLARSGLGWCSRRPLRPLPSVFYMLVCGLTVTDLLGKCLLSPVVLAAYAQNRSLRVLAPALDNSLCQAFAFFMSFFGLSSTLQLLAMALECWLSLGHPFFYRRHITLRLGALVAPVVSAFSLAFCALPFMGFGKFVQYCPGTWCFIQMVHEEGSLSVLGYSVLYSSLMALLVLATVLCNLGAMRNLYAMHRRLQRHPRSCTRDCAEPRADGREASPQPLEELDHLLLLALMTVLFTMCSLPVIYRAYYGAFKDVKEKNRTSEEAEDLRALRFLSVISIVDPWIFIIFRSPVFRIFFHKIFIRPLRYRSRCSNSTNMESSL
Experimental: The ability of a compound to bind to the human DP1 receptor was evaluated via a radioligand membrane binding assay using the DP1 selective synthetic ligand [^3H]BW A868C. Packed human platelets (Biological Specialty Corporation), were resuspended in 6 volumes of Hepes/HBSS buffer (10 mM Hepes, 1 mM DTT in Hanks Balanced Salt Solution (HBSS)), lysed and centrifuged at 75,000×g to pellet the membranes. Membranes were resuspended in Hepes/HBSS buffer to approximately 12 mg protein/ml. Membranes (20 μg protein/well) are incubated in 96-well plates with 2 nM [^3H]BWA868C and test compound in Assay Buffer (50 mM Hepes, 10 mM MnCl2, 1 mM EDTA, plus or minus 0.2% human serum albumin, pH 7.4) for 60 minutes at room temperature. The reactions are terminated by rapid filtration through Whatman GF/C glass fibre filter plates. The filter plates were pre-soaked in 0.33% polethylenimine for 30 minutes at room temperature then washed in Wash Buffer (50 mM Hepes, 0.5 M NaCl pH 7.4) prior to harvesting. After harvesting, the filter plates are washed 3 times with 1 ml cold Wash Buffer then dried. Scintillant is then added to the plates and the radioactivity retained on the filters is determined on a Packard TopCount (Perkin Elmer). Specific binding is determined as total radioactive binding minus non-specific binding in the presence of 10 μM BW A868C. IC50s were determined using GraphPad prism analysis of drug titration curves.

[1] = target: T2, recombinant human CRTH2 receptor (Homo sapiens, UniProt Q9Y5Y4); assay: GTPγS binding assay; assay type: biochemical; details: +HSA; read-out: hDP2 GTPγS μM (+HSA)
T2 construct: expressed in transfected cells
T2 sequence (Q9Y5Y4 1-395): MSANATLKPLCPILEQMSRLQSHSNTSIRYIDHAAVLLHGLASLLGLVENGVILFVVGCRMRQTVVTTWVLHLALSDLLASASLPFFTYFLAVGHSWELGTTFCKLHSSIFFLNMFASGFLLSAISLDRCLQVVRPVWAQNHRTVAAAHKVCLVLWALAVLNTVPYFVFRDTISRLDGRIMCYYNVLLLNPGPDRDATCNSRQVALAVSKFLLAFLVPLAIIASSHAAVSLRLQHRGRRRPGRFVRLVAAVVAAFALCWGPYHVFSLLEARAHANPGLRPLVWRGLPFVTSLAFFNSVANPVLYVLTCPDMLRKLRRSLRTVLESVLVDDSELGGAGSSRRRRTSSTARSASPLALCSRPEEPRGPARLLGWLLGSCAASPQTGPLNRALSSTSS
Experimental: The ability of a compound to inhibit binding of GTP to DP2 is assessed via a membrane GTPγS assay. CHO cells stably expressing the recombinant human CRTH2 receptor are resuspended in 10 mM Hepes, 7.4 containing 1 mM DTT, lysed and centrifuged at 75,000×g to pellet the membranes. The membranes are resuspended in 10 mM Hepes, 7.4 containing 1 mM DTT and 10% glycerol. Membranes (˜12.5 μg per well) are incubated in 96-well plates with 0.05 nM [^35S]-GTPγS, 80 nM PGD2, 5 μM GDP, and test compound in Assay Buffer (50 mM Hepes, pH 7.4, 100 mM NaCl, 5 mM MgCl2 and 0.2% human serum albumin) for 60 minutes at 30° C. The reactions are terminated by rapid filtration through Whatman GF/B glass fibre filter plates. The filter plates are washed 3 times with 1 ml cold Assay Buffer and dried. Scintillant is then added to the plates and the radioactivity retained on the filters is determined on a Packard TopCount (Perkin Elmer). Specific binding is determined as total radioactive binding minus non-specific binding in the absence of the ligand (80 nM PGD2). IC50s were determined using Graphpad prism analysis of drug titration curves.

human DP2 receptor = target: T3, human DP2 receptor (Homo sapiens, UniProt Q9Y5Y4); assay: DP2/CRTH2 radioligand binding assay using [3H]PGD2; details: hDP2 (CRTH2) binding assay
T3 construct: expressed in transfected cells
T3 sequence (Q9Y5Y4 1-395): T2 sequence (Q9Y5Y4 1-395)
Experimental: The ability of a compound to bind to the human DP2 receptor is assessed via a radioligand binding assay using [^3H]PGD2. HEK293 cells stably expressing recombinant human DP2 are resuspended in 10 mM Hepes, 7.4 containing 1 mM DTT, lysed and centrifuged at 75,000×g to pellet the membranes. The membranes are resuspended in 10 mM Hepes, 7.4 containing 1 mM DTT and 10% glycerol to approximately 5 mg protein/ml. Membranes (2-10 μg protein/well) are incubated in 96-well plates with 1 nM [^3H]PGD2 and test compound in Assay Buffer (50 mM Hepes, 10 mM MnCl2, 1 mM EDTA, plus or minus 0.2% human serum albumin, pH 7.4) for 60 minutes at room temperature. The reactions are terminated by rapid filtration through Whatman GF/C glass fibre filter plates. The filter plates were pre-soaked in 0.33% polythylenimine for 30 minutes at room temperature then washed in Wash Buffer (50 mM Hepes, 0.5 M NaCl pH 7.4) prior to harvesting. After harvesting, the filter plates are washed 3 times with 1 ml cold Wash Buffer then dried. Scintillant is then added to the plates and the radioactivity retained on the filters is determined on a Packard TopCount (Perkin Elmer). Specific binding is determined as total radioactive binding minus non-specific binding in the presence of 10 μM PGD2. IC50s were determined using GraphPad prism analysis of drug titration curves.

Structure (SMILES) | IC50 (human DP1 receptor) [nM] | IC50 [1] [µM] | IC50 (human DP2 receptor) [nM]
O=C(O)Cc1cccc(Oc2ccc(Br)cc2CN2CCOC2=O)c1 [Compound 1-3, {3-[4-Bromo-2-(2-oxo-oxazolidin-3-ylmethyl)-phenoxy]-phenyl}-acetic acid] | > 1000 | 0.3 to 1 | < 300
O=C(O)Cc1cccc(Oc2ccc(C(F)(F)F)cc2CN2CCOC2=O)c1 [Compound 1-5, {3-[2-(2-Oxo-oxazolidin-3-ylmethyl)-4-trifluoromethyl-phenoxy]-phenyl}-acetic acid] | > 1000 | < 0.3 | < 300
CCNC(=O)c1ccc(Oc2cccc(CC(=O)O)c2)c(CN2CCOC2=O)c1 [Compound 1-6, {3-[4-Ethylcarbamoyl-2-(2-oxo-oxazolidin-3-ylmethyl)-phenoxy]-phenyl}-acetic acid] | > 1000 | 0.3 to 1 | 300 to 1000
O=C(O)Cc1cccc(Oc2ccc(-c3ccccc3)cc2CN2CCOC2=O)c1 [Compound 1-7, {3-[3-(2-Oxo-oxazolidin-3-ylmethyl)-biphenyl-4-yloxy]-phenyl}-acetic acid] | > 1000 | 0.3 to 1 | < 300
Cc1c[nH]c(-c2ccc(Oc3cccc(CC(=O)O)c3)c(CN3C(=O)O[C@H](c4ccccc4)[C@@H]3C)c2)n1 [Compound 1-72, {3-[4-(4-Methyl-1H-imidazol-2-yl)-2-((4S,5R)-4-methyl-2-oxo-5-phenyl-oxazolidin-3-ylmethyl)-phenoxy]-phenyl}-acetic acid] | > 1000 |  | < 300
C[C@H]1[C@@H](c2ccccc2)OC(=O)N1Cc1cc(-c2nccn2C)ccc1Oc1cccc(CC(=O)O)c1 [Compound 1-73, {3-[4-(1-Methyl-1H-imidazol-2-yl)-2-((4S,5R)-4-methyl-2-oxo-5-phenyl-oxazolidin-3-ylmethyl)-phenoxy]-phenyl}-acetic acid] | 300 to 1000 |  | 300 to 1000
C[C@H]1[C@@H](c2ccccc2)OC(=O)N1Cc1cc(-c2nccs2)ccc1Oc1cccc(CC(=O)O)c1 [Compound 1-74, {3-[2-((4S,5R)-4-Methyl-2-oxo-5-phenyl-oxazolidin-3-ylmethyl)-4-thiazol-2-yl-phenoxy]-phenyl}-acetic acid] | < 300 |  | < 300
COc1ccc(CC(=O)O)cc1Oc1ccc(N2CCOCC2)cc1CN1CCOC1=O [Compound 1-90, {4-Methoxy-3-[4-morpholin-4-yl-2-(2-oxo-oxazolidin-3-ylmethyl)-phenoxy]-phenyl}-acetic acid] | > 1000 |  | > 1000
COc1ccc(CC(=O)O)cc1Oc1ccc(-c2ccc(S(C)(=O)=O)cc2)cc1CN1CCOC1=O [Compound 1-92, {3-[4′-Methanesulfonyl-3-(2-oxo-oxazolidin-3-ylmethyl)-biphenyl-4-yloxy]-4-methoxy-phenyl}-acetic acid] | > 1000 |  | < 300
COc1ccc(CC(=O)O)cc1Oc1ccc(-c2cccc(S(C)(=O)=O)c2)cc1CN1CCOC1=O [Compound 1-93, {3-[3′-Methanesulfonyl-3-(2-oxo-oxazolidin-3-ylmethyl)-biphenyl-4-yloxy]-4-methoxy-phenyl}-acetic acid] | > 1000 |  | < 300
COc1ccc(CC(=O)O)cc1Oc1ccc(-c2ccccc2S(C)(=O)=O)cc1CN1CCOC1=O [Compound 1-94, {3-[2′-Methanesulfonyl-3-(2-oxo-oxazolidin-3-ylmethyl)-biphenyl-4-yloxy]-4-methoxy-phenyl}-acetic acid] | > 1000 |  | < 300
COc1ccc(CC(=O)O)cc1Oc1ccc(-c2ccccc2)cc1CN1CCOC1=O [Compound 1-95, {4-Methoxy-3-[3-(2-oxo-oxazolidin-3-ylmethyl)-biphenyl-4-yloxy]-phenyl}-acetic acid] | > 1000 |  | < 300
COc1ccc(CC(=O)O)cc1Oc1ccc(-c2cnn(C)c2)cc1CN1CCOC1=O [Compound 1-96, {4-Methoxy-3-[4-(1-methyl-1H-pyrazol-4-yl)-2-(2-oxo-oxazolidin-3-ylmethyl)-phenoxy]-phenyl}-acetic acid] | > 1000 |  | < 300
COc1ccc(CC(=O)O)cc1Oc1ccc(NC(=O)c2cc(C(F)(F)F)cc(C(F)(F)F)c2)cc1CN1CCOC1=O [Compound 1-97, {3-[4-(3,5-Bis-trifluoromethyl-benzoylamino)-2-(2-oxo-oxazolidin-3-ylmethyl)-phenoxy]-4-methoxy-phenyl}-acetic acid] | > 1000 |  | < 300
COc1ccc(CC(=O)O)cc1Oc1ccc(NC(=O)c2cc(C(F)(F)F)ccc2F)cc1CN1CCOC1=O [Compound 1-98, {3-[4-(2-Fluoro-5-trifluoromethyl-benzoylamino)-2-(2-oxo-oxazolidin-3-ylmethyl)-phenoxy]-4-methoxy-phenyl}-acetic acid] | > 1000 |  | < 300
COc1ccc(CC(=O)O)cc1Oc1ccc(NS(=O)(=O)c2ccc(Cl)cc2)cc1CN1CCOC1=O [Compound 1-99, {3-[4-(4-Chloro-benzenesulfonylamino)-2-(2-oxo-oxazolidin-3-ylmethyl)-phenoxy]-4-methoxy-phenyl}-acetic acid] | > 1000 |  | < 300
O=C(O)Cc1cccc(Oc2ccc(Br)cc2CN2CCCC2=O)c1 [Compound 3-1, {3-[4-Bromo-2-(2-oxo-pyrrolidin-1-ylmethyl)-phenoxy]-phenyl}-acetic acid] | > 1000 |  | > 1000
COc1ccc(CC(=O)O)cc1Oc1ccc(Br)cc1CN1CCNC1=O [Compound 3-3, {3-[4-Bromo-2-(2-oxo-imidazolidin-1-ylmethyl)-phenoxy]-4-methoxy-phenyl}-acetic acid] | > 1000 |  | 300 to 1000
COc1ccc(CC(=O)O)cc1Oc1ccc(Br)cc1CN1CCN(C)C1=O [Compound 3-4, {3-[4-Bromo-2-(3-methyl-2-oxo-imidazolidin-1-ylmethyl)-phenoxy]-4-methoxy-phenyl}-acetic acid] | > 1000 |  | > 1000
